Data: the RepoRT retention time repository (doi:10.1021/acs.analchem.2c02893)

Assay: RP, Thermo Scientific Acclaim RSLC 120 C18, 100 × 2.1 mm, 2.2 µm, 30 °C, 0.2 mL/min, estimated dead time 1.1 min; A: 90% water + 10% methanol + 0.01% formic acid + 5 mM ammonium formate, pH 3.61; B: methanol + 0.01% formic acid + 5 mM ammonium formate, pH 3.61; gradient (min/%B) 0/1 1/1 2/39 13/99.9 15/99.9 15.1/1 20.1/1
Conditions: stereoisomer not certain

LC retention time [min]	Compound
9.98	COc1ccc(Cl)cc1C(=O)NCCc1ccc(S(=O)(=O)NC(=O)NC2CCCCC2)cc1 [Glibenclamide]
9.79	Cc1ccc(S(=O)(=O)NC(=O)NC2C3CCC(C)(C2O)C3(C)C)cc1 (stereo not drawn) [Glibornuride]
10.7	CCC1=C(C)CN(C(=O)NCCc2ccc(S(=O)(=O)NC(=O)NC3CCC(C)CC3)cc2)C1=O (stereo not drawn) [Glimepiride]
8.11	Cc1cnc(C(=O)NCCc2ccc(S(=O)(=O)NC(=O)NC3CCCCC3)cc2)cn1 [Glipizide]
4.99	CN1C2CCCC1CC(NC(=O)c1nn(C)c3ccccc13)C2 (stereo not drawn) [Granisetron]
5.11	COc1ccccc1OCC(O)CO (stereo not drawn) [Guaifenesin]
3.23	NC(N)=NC(=O)c1nc(Cl)c(N2CCCCCC2)nc1N [HMA]
7.18	O=C(CCCN1CCC(O)(c2ccc(Cl)cc2)CC1)c1ccc(F)cc1 [Haloperidol]
12.2	CCOCCOC(=O)C(C)Oc1ccc(Oc2ncc(C(F)(F)F)cc2Cl)cc1 (stereo not drawn) [Haloxyfop ethoxyethyl ester]
8.25	CC1(OC(=O)C=Cc2ccccc2)CC(O)C2(O)C=COC(OC3OC(CO)C(O)C(O)C3O)C12 (stereo not drawn) [Harpagoside]
7.19	c1ccc(CN(CCN2CCCC2)c2ccccc2)cc1 [Histapyrrodine]
3.73	CN1C2CCC1CC(OC(=O)C(O)c1ccccc1)C2 (stereo not drawn) [Homatropine]
7.84	CCCc1nn(C)c2c(=O)[nH]c(-c3cc(S(=O)(=O)N4CCN(CC)CC4)ccc3OCC)nc12 [HomoSildenafil]
8.8	CC(=O)OCC(=O)C1(O)CCC2C3CCC4=CC(=O)CCC4(C)C3C(O)CC21C (stereo not drawn) [Hydrocortisone 21-acetate]
8.28	OCCOCCN1CCN(C(c2ccccc2)c2ccc(Cl)cc2)CC1 (stereo not drawn) [Hydroxyzine]
7.08	CC(C(=O)O)c1ccc(CC(C)(C)O)cc1 (stereo not drawn) [Ibuprofen- 2-Hydroxy]
6.99	CC(Cc1ccc(C(C)C(=O)O)cc1)C(=O)O (stereo not drawn) [Ibuprofen-Carboxy]

LC retention time [min]	Compound
6.6	Cc1ccc(NC(=O)c2ccc(CN3CCN(C)CC3)cc2)cc1Nc1nccc(-c2cccnc2)n1 [Imatinib]
9.09	C=CCOC(Cn1ccnc1)c1ccc(Cl)cc1Cl (stereo not drawn) [Imazalil]
7.16	COC(=O)c1ccc(C)cc1C1=NC(C)(C(C)C)C(=O)N1 (stereo not drawn) [Imazamethabenz-methyl]
8.78	COc1cc(OC)nc(NC(=O)NS(=O)(=O)c2c(Cl)nc3ccccn23)n1 [Imazosulfuron]
3.78	O=C(Nc1cccc(C2=NCCN2)c1)Nc1cccc(C2=NCCN2)c1 [Imidocarb]
10.1	C1=Cc2ccccc2Nc2ccccc21 [Iminostilbene]
8.08	CN(C)CCCN1c2ccccc2CCc2ccccc21 [Imipramine]
9.27	O=C(Nc1ccc(Cl)cc1C(O)c1ccccc1)c1ccncc1 (stereo not drawn) [Inabenfide]
7.9	CCc1cc2c(cc1CC)CC(NCC(O)c1ccc(O)c3[nH]c(=O)ccc13)C2 (stereo not drawn) [Indacaterol]
6.61	CC1Cc2ccccc2N1NC(=O)c1ccc(Cl)c(S(N)(=O)=O)c1 (stereo not drawn) [Indapamide]
9.79	CC(C)(C)NC(=O)C1CN(Cc2cccnc2)CCN1CC(O)CC(Cc1ccccc1)C(=O)NC1c2ccccc2CC1O (stereo not drawn) [Indinavir]
5.78	O=C(O)Cc1c[nH]c2ccccc12 [Indole-3-acetic acid]
10.3	COc1ccc2c(c1)c(CC(=O)O)c(C)n2C(=O)c1ccc(Cl)cc1 [Indomethacin]
5.37	O=C(NC1CCN(CCc2c[nH]c3ccccc23)CC1)c1ccccc1 [Indoramin]
4.17	CC(C)[N+]1(C)C2CCC1CC(OC(=O)C(CO)c1ccccc1)C2 (stereo not drawn) [Ipratropium]
9.26	CN(C)CCCn1c2c(c3ccccc31)CCCCCC2 [Iprindol]

More lines, now with the values behind:

Compound	LC retention time [min]
CP(=O)(O)CCC(N)C(=O)O (stereo not drawn) [Glufosinate]	1.44
COC1=CC(=O)CC(C)C12Oc1c(Cl)c(OC)cc(OC)c1C2=O (stereo not drawn) [Griseofulvin]	8.05
NC(N)=NN=Cc1c(Cl)cccc1Cl [Guanabenz]	5.61
NC(N)=NCC1COc2ccccc2O1 (stereo not drawn) [Guanoxan]	4.57
CNC(C)Cc1ccc(O)c(O)c1 (stereo not drawn) [HHMA]	2.59
CNC(C)Cc1ccc(O)c(OC)c1 (stereo not drawn) [HMMA]	3.19
CCCCCn1cc(C(=O)CC(C)(C)C(C)(C)O)c2ccccc21 [HTMPIPO-4]	11.6
CCCCCCC(C)(C)c1cc(O)c2c(c1)OC(C)(C)C1CC=C(CO)CC21 (stereo not drawn) [HU-210]	13.5
CC1(C)OC2CC3C4CCC5=CC(=O)CCC5(C)C4(F)C(O)CC3(C)C2(C(=O)CCl)O1 (stereo not drawn) [Halcinonide]	10.8
CC(C)(COCc1cccc(Oc2ccccc2)c1)c1ccc(OC(F)(F)Br)cc1 [Halfenprox]	14.3
CC(C)(C)N(NC(=O)c1ccc(Cl)cc1)C(=O)c1ccccc1 [Halofenozide]	9.25
O=C(CC1NCCCC1O)Cn1cnc2cc(Br)c(Cl)cc2c1=O (stereo not drawn) [Halofuginone]	6.76
COc1ccc2c3c([nH]c2c1)C(C)=NCC3 [Harmaline]	5.06
COc1ccc2c(c1)[nH]c1c(C)nccc12 [Harmine]	5.34
COC(C)C(O)(C(=O)OCC1=CC[N+]2([O-])CCC(O)C12)C(C)C (stereo not drawn) [Heliotrine-N-oxide]	3.49
COC(C)C(O)(C(=O)OCC1=CCN2CCC(O)C12)C(C)C (stereo not drawn) [Heliotrine]	4.27
COP(=O)(OC)OC1=C(Cl)C2CC=CC12 (stereo not drawn) [Heptenophos]	8.49
CC(=O)Oc1ccc2c3c1OC1C(OC(C)=O)C=CC4C(C2)N(C)CCC341 (stereo not drawn) [Heroin]	4.63
CCCCC(O)(Cn1cncn1)c1ccc(Cl)cc1Cl (stereo not drawn) [Hexaconazole]	11.2
CCCCCCCCCCCCCCCC[N+](C)(C)C [Hexadecyltrimethylammonium]	12.9
O=C(NC(=O)c1c(F)cccc1F)Nc1cc(Cl)c(OC(F)(F)C(F)F)c(Cl)c1 [Hexaflumuron]	11.8
CN(C)c1nc(=O)n(C2CCCCC2)c(=O)n1C [Hexazinone]	7.09
COc1cc(C(=O)OCCCN(C)CCN(C)CCCOC(=O)c2cc(OC)c(OC)c(OC)c2)cc(OC)c1OC [Hexobendine]	7.54
CC1C(c2ccc(Cl)cc2)SC(=O)N1C(=O)NC1CCCCC1 (stereo not drawn) [Hexythiazox]	12.6
CN(C)CCc1ccc(O)cc1 [Hordenine]	2.28

Compound	LC retention time [min]
NS(=O)(=O)c1cc2c(cc1Cl)NCNS2(=O)=O [Hydrochlorothiazide (NH4)]	3.24
COc1ccc2c3c1OC1C(=O)CCC4C(C2)N(C)CCC314 (stereo not drawn) [Hydrocodone]	3.69
CN1CCC23c4c5ccc(O)c4OC2C(=O)CCC3C1C5 (stereo not drawn) [Hydromorphone]	2.91
O=P1(NCCCl)OCCCN1CCCl (stereo not drawn) [Ifosfamid]	5.89
COCc1cnc(C2=NC(C)(C(C)C)C(=O)N2)c(C(=O)O)c1 (stereo not drawn) [Imazamox]	4.63
CC(C)C1(C)N=C(c2ncccc2C(=O)O)NC1=O (stereo not drawn) [Imazapyr]	4.1
CC(C)C1(C)N=C(c2nc3ccccc3cc2C(=O)O)NC1=O (stereo not drawn) [Imazaquin]	6.1
CCc1cnc(C2=NC(C)(C(C)C)C(=O)N2)c(C(=O)O)c1 (stereo not drawn) [Imazethapyr]	5.6
Clc1ccc(CSC(Cn2cncn2)=Nc2ccc(Cl)cc2Cl)cc1 [Imibenconazole]	12.4
NC1=NCCN1Cc1ccc(Cl)nc1 [Imidacloprid-guanidine]	11
O=C1NCCN1Cc1ccc(Cl)nc1 [Imidacloprid-urea]	4.71
O=[N+]([O-])/N=C1\NCCN1Cc1ccc(Cl)nc1 [Imidacloprid]	4.76
CN1CCN(C)C1=O [Imidazolidinon- 1-3-Dimethyl-2-]	3.53
c1cc2c(c(NC3=NCCN3)c1)CCC2 [Indanazoline]	4.76
COC(=O)N(C(=O)N1COC2(C(=O)OC)Cc3cc(Cl)ccc3C2=N1)c1ccc(OC(F)(F)F)cc1 (stereo not drawn) [Indoxacarb]	11.6
CN(CC(O)CO)C(=O)c1c(I)c(NC(=O)C(CO)CO)c(I)c(C(=O)N(C)CC(O)CO)c1I (stereo not drawn) [Iobitridol]	2.74
CC(=O)N(CC(O)CN(C(C)=O)c1c(I)c(C(=O)NCC(O)CO)c(I)c(C(=O)NCC(O)CO)c1I)c1c(I)c(C(=O)NCC(O)CO)c(I)c(C(=O)NCC(O)CO)c1I (stereo not drawn) [Iodixanol]	3.56
COP(=S)(OC)Oc1cc(Cl)c(I)cc1Cl [Iodofenphos (Jodfenphos)]	12.7
CC(=O)N(CC(O)CO)c1c(I)c(C(=O)NCC(O)CO)c(I)c(C(=O)NCC(O)CO)c1I (stereo not drawn) [Iohexol]	2.98
CN(C(=O)CO)c1c(I)c(C(=O)NCC(O)CO)c(I)c(C(=O)NCC(O)CO)c1I (stereo not drawn) [Iomeprol]	2.91
CN(C)C=Nc1c(I)cc(I)c(CCC(=O)O)c1I [Iopodic acid]	10.2
COCC(=O)Nc1c(I)c(C(=O)NCC(O)CO)c(I)c(C(=O)N(C)CC(O)CO)c1I (stereo not drawn) [Iopromid]	3.38
CC(=O)Nc1c(I)c(C(=O)O)c(I)c(C(=O)NCCO)c1I [Ioxitalamin acid]	2.09
CC(C)OP(=O)(OC(C)C)SCc1ccccc1 [Iprobenfos]	10.6
CC(C)NC(=O)N1CC(=O)N(c2cc(Cl)cc(Cl)c2)C1=O [Iprodione]	10.5
